Results published in patent US11464787B2, “Composition comprising oleanolic acid acetate as active ingredient for preventing, alleviating, or treating renal toxicity induced by medicine” (Korea Research Institute of Bioscience and Biotechnology, priority 2016, dated 2022).

Tests used:
peritoneal macrophages = experiment: MTT assay cytotoxicity in mouse peritoneal macrophages; assay type: cell-based; settings: for cell survival rate: maximum concentration of 1000 μg/ml, 24 hours
Method: For the isolation of peritoneal macrophage of mice, 3 ml of 3% thioglycollate medium was administered intraperitoneally to 5-6 week old ICR male mice (Oriental Bio, Seoul, Korea). After 3 days, 6 ml to 7 ml of PBS was administered intraperitoneally, followed by a massage of peritoneal cavity to collect the peritoneal fluid. The collected peritoneal fluid was centrifuged and suspended in RPMI (10% FBS, 1% antibiotics), transferred to a plate, and stabilized at 37° C. for 2 hours.
(§1) The absorbance thereof was measured at 570 nm.

spleen cells = experiment: MTT assay cytotoxicity in mouse spleen cells; assay type: cell-based; settings: all concentrations (100, 300, and 600 μg/ml)
Method: For the isolation of mouse spleen cells, 5-6 week old ICR male mice (Oriental Bio, Seoul, Korea) were sacrificed with CO2 and then their spleen was aseptically extracted. The spleen was ground with a filter to separate single spleen cells, centrifuged using centrifugation, and erythrocytes were dissolved using ficoll. Cells from which erythrocytes had been removed were stabilized with RPMI (10% FBS, 1% antibiotics) at 37° C. for 2 hours.
as §1

[1] = system: cisplatin-induced nephrotoxicity; experiment: Cisplatin-induced nephrotoxicity animal model: body weight, kidney weight, death rate, BUN; assay type: in vivo, C57BL/6 male mice
Method: (§2) For the experiment, the mice were kept under constant temperature (23±3° C.), humidity (55±15%) and light irradiation (7:00 to 19:00). After the purchase, the mice were stabilized in the SPF animal breeding room for 1 week and used in the experiment.
After the mouse sacrifice, the body weight was measured, the kidney was isolated, the blood was collected from the heart, and the blood urea nitrogen (BUN), a biochemical indicator related to nephrotoxicity, was measured. The collected mouse blood was centrifuged at 3000 rpm and 4° C. for 15 minutes using a centrifuge to separate the only serum, and the BUN was measured using an automatic analyzer (Fuji Dry-Chem NX500i, Tokyo, Japan).
The death rate was expressed as a percentage by dividing the number of mice killed in each group by the total number of mice.

TNF-α [2] = experiment: Blood TNF-α by ELISA in cisplatin-induced nephrotoxicity model; assay type: in vivo, C57BL/6 male mice; settings: cisplatin and oleanolic acid acetate (50 mg/Kg)-treated group, serum ELISA
Method: as §2
(§3) In order to measure inflammatory cytokines in the blood (TNF-α and IL-6), serum was separated and used from blood, and TNF-α and IL-6 were measured using a mouse ELISA kit (R&D system, Minneapolis, Minn., USA). ELISA color development was measured using a Varioskan™ LUX multimode microplate reader (Thermofisher, Sunnyvale, Calif., USA) at a wavelength of 450 nm.

IL-6 [3] = experiment: Blood IL-6 by ELISA in cisplatin-induced nephrotoxicity model; assay type: in vivo, C57BL/6 male mice; settings: cisplatin and oleanolic acid acetate (50 mg/Kg)-treated group, serum ELISA
Method: as §2, §3

TNF-α [4] = experiment: Kidney tissue TNF-α mRNA expression by real-time PCR in cisplatin-induced nephrotoxicity model; assay type: in vivo, C57BL/6 male mice; settings: cisplatin and oleanolic acid acetate (50 mg/Kg)-treated group
Method: as §2
(§4) After the mouse sacrifice, kidneys were separated and homogenized by adding Trizol reagent (Invitrogen, Carlsbad, Calif., USA). To this, chloroform was added to extract RNA, and isopropanol was added to precipitate. After the RNA precipitate was washed with 75% ethanol, the RNA concentration and purity were measured with a 2100 Bioanalyzer System (Agilent Technologies, Santa Clara, Calif., USA), and Taqman reverse transcription reagents kit (Applied Biosystems, Foster City) was used to synthesize cDNA. The expression level of inflammatory factors was measured by real-time PCR using SYBR Green PCR master mix kit (Applied Biosystem, Foster City, Calif., USA).
(§5) In order to examine the expression levels of TNF-α and IL-6, inflammatory cytokines, COX-2, a prostaglandin E2 (PGE2) synthase involved in increasing the vascular permeability of the inflammatory response, and MCP-1, an inflammatory chemokine, Real-time PCR was performed on each gene.

IL-6 [5] = experiment: Kidney tissue IL-6 mRNA expression by real-time PCR in cisplatin-induced nephrotoxicity model; assay type: in vivo, C57BL/6 male mice; settings: cisplatin and oleanolic acid acetate (50 mg/Kg)-treated group
Method: as §2, §4, §5

COX-2 = experiment: Kidney tissue COX-2 mRNA expression by real-time PCR in cisplatin-induced nephrotoxicity model; assay type: in vivo, C57BL/6 male mice; settings: cisplatin and oleanolic acid acetate (50 mg/Kg)-treated group
Method: as §2, §4, §5

MCP-1 = experiment: Kidney tissue MCP-1 mRNA expression by real-time PCR in cisplatin-induced nephrotoxicity model; assay type: in vivo, C57BL/6 male mice; settings: cisplatin and oleanolic acid acetate (50 mg/Kg)-treated group
Method: as §2, §4, §5

HEK-293T cells = experiment: MTT assay cytotoxicity in HEK-293T human embryonic kidney cells; settings: for cell survival rate: HEK-293T, highest concentration of 1000 μg/ml, 24 hours
Method: HEK-293T cells, human embryonic kidney cells, were cultured in Dulbecco's modified eagle medium (Cat No. 12800-017, Gibco, USA) supplemented with heat-inactivated 10% FBS.
The survival rate of cultured cells was measured by MTT reduction method. As an MTT solution, formazan was formed by mitochondrial dehydrogenases in living cells to confirm cell viability. […] After 24 hours, 20 μl of MTT solution was added to each well, followed by further culturing for 2 hours. Then, the culture solution was removed, and 100 μl of dimethylsulfoxide was added thereto. The absorbance thereof was measured at 570 nm.

Structure (SMILES) | cytotoxicity (in words) (peritoneal macrophages) | cell survival rate (peritoneal macrophages) [%] | cell survival rate compared with oleanolic acid (in words) (spleen cells) | death rate ([1]; cisplatin 20 mg/kg i.p. and oleanolic acid acetate 50 mg/Kg orally, mice) [%] | BUN value ([1]; cisplatin and oleanolic acid acetate (50 mg/Kg oral)-treated group, serum, day 5, vs cisplatin group) | TNF-α in the blood (TNF-α [2]) | IL-6 in the blood (IL-6 [3]) | amount of mRNA expression of TNF-α (TNF-α [4]) | amount of mRNA expression of IL-6 (IL-6 [5]) | amount of mRNA expression of COX-2 (COX-2) | amount of mRNA expression of MCP-1 (MCP-1) | cell survival rate (HEK-293T cells) [%] | cytotoxicity (in words) (HEK-293T cells; human kidney cell lines, compared with oleanolic acid)
CC(=O)O[C@H]1CC[C@@]2(C)C(CC[C@]3(C)[C@@H]2CC=C2[C@H]4CC(C)(C)CC[C@]4(C(=O)O)CC[C@]23C)C1(C)C (stereo partly drawn) [oleanolic acid acetate, 4aS,6aR,6aS,6bR,8aR,10S,12aR,14bS-10-hydroxy-2,2,6a,6b,9,9,12a-heptamethyl-1,3,4,5,6,6a,7,8,8a,10,11,12,13,14b-tetradecahydropicene-4a-carboxylic acid acetate] | almost no cytotoxicity | 81 | higher cell survival rate than that of oleanolic acid | 44 | decreased | decreased | decreased | decreased | decreased | decreased | decreased | 43 | concentration-dependently less than that of oleanolic acid
CC1(C)CC[C@]2(C(=O)O)CC[C@]3(C)C(=CC[C@@H]4[C@@]5(C)CC[C@H](O)C(C)(C)[C@@H]5CC[C@]43C)[C@@H]2C1 [oleanolic acid] | cytotoxicity in a concentration-dependent manner | 41 | – | – | – | – | – | – | – | – | – | 27 | –
